From US5688943A, “Benzodiazepine derivatives useful as CCK-receptor antagonists” (Yamanouchi Pharmaceutical Co., Ltd., priority 1992, dated 1997)

Columns and labels:
[1] = tested on: pentagastrin-stimulated gastric acid secretion; experiment: Measurement of inhibition of pentagastrin-stimulated gastric acid secretion in rat; type: in vivo; conditions: anaesthetised rat, test drug intravenous, pentagastrin 15 μg/Kg/hr i.v.; read-out: ED50, reduction of pentagastrin-stimulated gastric acid secretion to 50% of the maximum level
Text: Measurement of inhibition of pentagastrin-stimulated gastric acid secretion in rat
A cannula was inserted into the trachea of a rat anaesthetised with urethane (intraperitoneally administered, 1.25 g/Kg), its abdominal wall was incised to expose the gastric and duodenal portions, and a polyethylene cannula was set in the anterior stomach after ligation of the cardia. The duodenum was then subjected to slight section, a polyethylene cannula was inserted from the incised portion toward the stomach, and the pylorus was ligated to fix the cannula.
Physiological saline (with pH adjusted to 7.0) was perfused from the anterior stomach toward the pylorus at a rate of 3 ml/min, and the gastric-acid secretion was measured by continuous titration of the perfusate by the use of a pH-stat (AUT-201; product of Toa Electronics, Ltd.). The continuous titration was carried out by using 25 mM NaOH solution until the pH reached 7.0, and the result was expressed as the amount of gastric acid secreted for every 10 minutes (μEq /10 min.). Pentagastrin was intravenously administered at a rate of 15 μg/Kg/hr.
The secretion of gastric acid increased upon administration of pentagastrin, reaching the maximum level after 60 minutes and stably maintaining this level after that. A test drug was then intravenously administered, and the secretion of gastric acid was measured; ED50 values were determined, being the amount of the drug required to reduce the amount of secreted gastic acid down to 50% of the maximum level.

CCK-B receptors = target: T1, CCK-B receptors (Rattus norvegicus, UniProt P30553); experiment: Measurement of binding affinity for CCK-B receptors ([125I]BH-CCK-8, rat brain membranes); set-up: species or system SD rats; conditions: ratio IC50 (CCK-A)/IC50 (CCK-B)
T1 construct: the whole brain was immediately excised from each of the rats and homogenized; from tissue; host or cells: SD rat whole brain membranes
Experimental: Measurement of binding affinity for CCK-B receptors
About 100 SD rats were decapitated without anaesthesia, the whole brain was immediately excised from each of the rats and homogenized in 10-fold volume of 0.32M aqueous solution of sucrose by the use of a Teflon-coated homogenizer, the homogenate thus obtained was centrifuged for ten minutes at 900 g by the use of a cooled centrifuge, and the supernatant was further centrifuged for 15 minutes at 11500 g. The precipitate thus obtained was dispersed in 50 mM Tris-HCl buffer (pH 7.4) containing 0.08% Triton X-100, this suspension was allowed to stand for 30 minutes and again centrifuged for 15 minutes at 11500 g, the precipitate thus obtained was washed twice with 5 mM Tris-HCl buffer and twice with 50 mM Tris-HCl buffer in that order with centrifugal separation, the washed precipitate was suspended in 50 mM Tris-HCl buffer, and the suspension thus obtained was stored at -80° C. until the membrane preparation was required.
The membrane preparations were warmed to room temperature, diluted with 10 mM HEPES buffer (containing 130 mM NaCl, 5 mM MgCl2, 1 mM EGTA and 0.25 mg/ml bacitracin; pH 6.5) and incubated at 25° C. for 120 minutes in the presence of [^125 I]BH-CCK-8 and the test compound, then separated by suction filtration. Non-specific binding was determined in the presence of 1 μM CCK-8. The amount of labelled ligand bound to the receptor was measured by the use of a γ-counter; IC50 values were determined, being that concentration of test compound required to inhibit specific binding by 50%.
(§1) A high affinity for the CCK-A receptor in a gastrin/CCK-B antagonist is thought to be undesirable as it may lead to side-effects such as cholestasis and gall stone formation during therapy. Therefore it is preferable for the therapeutic agent to be selective for the CCK-B receptor. This selectivity is expressed by the ratio IC50 (CCK-A)/IC50 (CCK-B); the higher the value of this ratio the better is the selectivity.

CCK-A receptors = target: T2, CCK-A receptors (Rattus norvegicus, UniProt P30551); experiment: Measurement of binding affinity for CCK-A receptors ([3H]L-364,718, rat pancreas membranes); set-up: species or system SD rat; conditions: [3H]L-364,718, 37° C., 30 minutes, read-out: Receptor binding affinity IC50, CCK-A
T2 construct: The pancreas of an SD rat was homogenized; from tissue; host or cells: SD rat pancreas membranes
T2 sequence (P30551 1-444): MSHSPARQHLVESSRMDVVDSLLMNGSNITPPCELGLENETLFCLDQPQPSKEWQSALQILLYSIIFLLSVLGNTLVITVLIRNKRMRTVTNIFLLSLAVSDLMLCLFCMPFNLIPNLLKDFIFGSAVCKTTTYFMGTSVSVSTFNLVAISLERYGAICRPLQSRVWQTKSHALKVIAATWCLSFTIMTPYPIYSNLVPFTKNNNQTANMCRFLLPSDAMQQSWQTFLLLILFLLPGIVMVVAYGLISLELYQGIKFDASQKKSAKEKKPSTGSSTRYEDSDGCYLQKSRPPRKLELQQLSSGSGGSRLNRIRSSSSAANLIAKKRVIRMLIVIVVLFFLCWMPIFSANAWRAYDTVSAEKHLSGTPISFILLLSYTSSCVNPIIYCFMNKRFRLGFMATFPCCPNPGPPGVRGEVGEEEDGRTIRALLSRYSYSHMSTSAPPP
Experimental: Measurement of binding affinity for CCK-A receptors
The pancreas of an SD rat was homogenized in a 20-fold volume of 50 mM Tris-HCl buffer (pH 7.7) by the use of a Polytrone-type homogenizer, the homogenate was twice centrifuged for 10 minutes at 50000 g by the use of an ultra-centrifuge, the precipitate thus obtained was suspended in a 40-fold volume of 50 mM Tris-HCl buffer (containing 0.2% BSA, 5 mM MgCl2, 0.1 mg/ml bacitracin and 5 mM DTT; pH 7.7), and the suspension was stored at -80° C. until the membrane preparations were required.
The membrane preparations were then warmed to room temperature, diluted 1:10 with the buffer and incubated at 37° C. for 30 minutes in the presence of [^3 H]L-364,718 and the test compound then separated by suction filtration. Non-specific binding was determined in the presence of 1 μM L-364,718. The amount of labelled ligand bound to the receptor was measured by the use of a liquid scintillation counter; IC50 values were determined, being that concentration of test compound required to inhibit specific binding by 50%
as §1

T1 sequence (P30553 whole entry): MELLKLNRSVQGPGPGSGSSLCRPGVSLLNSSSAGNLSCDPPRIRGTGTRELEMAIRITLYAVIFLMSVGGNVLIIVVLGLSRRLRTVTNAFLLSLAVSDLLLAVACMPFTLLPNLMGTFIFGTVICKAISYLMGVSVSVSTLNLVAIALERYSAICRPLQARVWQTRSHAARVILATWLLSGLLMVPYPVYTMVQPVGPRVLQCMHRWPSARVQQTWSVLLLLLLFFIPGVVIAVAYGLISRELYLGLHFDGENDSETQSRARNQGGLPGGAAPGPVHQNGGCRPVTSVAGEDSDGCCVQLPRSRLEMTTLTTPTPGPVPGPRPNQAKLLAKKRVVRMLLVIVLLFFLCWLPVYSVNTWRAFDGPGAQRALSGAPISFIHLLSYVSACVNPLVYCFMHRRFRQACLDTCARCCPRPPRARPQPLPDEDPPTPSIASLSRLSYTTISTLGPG

Row | SMILES | ED50 [1] [µmol/kg] | A/B Ratio (CCK-B receptors) | IC50 (CCK-A receptors) [nM]
1 | Cc1cccc(NC(=O)NC2N=C(c3ccccc3)c3ccccc3N(CC(=O)C3CCCC3)C2=O)c1 (racemic) [Example 4, N-((3RS)-1-Cyclopentylcarbonylmethyl-2,3-dihydro-2-oxo-5-phenyl-1H-1,4-benzodiazepin-3-yl)-N'-(3-methylphenyl)urea] | 0.016 | 1,900 | 440
2 | Cc1cccc(NC(=O)NC2N=C(c3ccccc3)c3ccccc3N(CC(=O)C3CCCCCC3)C2=O)c1 (racemic) [Example 5, N-((3RS)-1-Cycloheptylcarbonylmethyl-2,3-dihydro-2-oxo-5-phenyl-1H-1,4-benzodiazepin-3-yl)-N'-(3-methylphenyl)urea] | 0.018 |  | 
3 | Cc1cccc(NC(=O)NC2N=C(c3ccccc3)c3ccccc3N(CC(=O)C3CCCCC3)C2=O)c1 (racemic) [Example 7, N-((3RS)-1-Cyclohexylcarbonylmethyl-2,3-dihydro-2-oxo-5-phenyl-1H-1,4-benzodiazepin-3-yl)-N'-(3-methylphenyl)urea] | 0.047 |  | 
4 | Cc1cccc(NC(=O)N[C@@H]2N=C(c3ccccc3)c3ccccc3N(C)C2=O)c1 [reference compound] | 4.2 |  | 
